Counter-ions that a name gives are not always drawn.
What follows are molecules tested on Aβ40 (assay: Screen of NIH clinical collection compounds for reduction of Aβ40 in Tg2576 mES cell derived neurons (Aβ40 ELISA)). Conditions: Aβ40 in conditioned media vs DMSO control; neurons treated on day 8 after plating for 24 hours.
Format: cell-based, mouse
Parameters: Percent Inhibition: concentration or dose not given beside the values
Description: In certain embodiments, the inhibitor of the present invention is identified by an assay directed to detecting inhibitors of Aβ40 production. For example, but not by way of limitation, such assays can include assays such as those prepared as follows. First, mouse ES cells isolated from Tg2576 mice are subjected to directed differentiation as previously described. After dissociation of embryoid bodies, neurons are plated in poly-D-lysine and laminin coated 96 well black plates at a density of 1.5×10^5 cells/cm2 which is 45,000 cells/well. Media is changed to N2 containing media after 4 hours and again the next day after plating. Two days after plating, media is changed to B27 containing media which is replaced every 2 days after that. On day 8 after plating the mouse ES derived neurons are treated with the compound of interest. […] In certain embodiments the compounds are incubated with the cells for 24 hours in 150 μl B27 media. In certain embodiments each plate of ES derived neurons is treated with NCC compounds, DMSO (negative control), and the positive controls for Aβ reduction BACE inhibitor IV (Calbiochem) and Compound E. After 24 hours, 100 μl conditioned media can then be removed and frozen at −80° C. until further analysis for Aβ40 content. The remaining cells in 50 μl media can be subjected to cell viability assay CellQuanti Blue (BioAssay Systems). In certain embodiments, conditioned media can be subjected to Aβ40 quantification, e.g., by using Aβ40 ELISA (Invitrogen).
Mouse ES cells isolated from. Tg2576 mice were subjected to directed differentiation as previously described. After dissociation of embryoid bodies, neurons were plated in poly-D-lysine and laminin coated 96 well black plates at a density of 1.5×10^5 cells/cm2 which is 45,000 cells/well. Media was changed to N2 containing media after 4 hours and again the next day after plating. Two days after plating, media was changed to B27 containing media which was replaced every 2 days after that. […] Each plate of ES derived neurons was treated with NCC compounds, DMSO (negative control), and the positive controls for Aβ reduction BACE inhibitor IV (Calbiochem) and Compound E. After 24 hours, 100 μl conditioned media was removed and frozen at −80° C. until further analysis for Aβ40 content. The remaining cells in 50 μl media were subjected to cell viability assay CellQuanti Blue (BioAssay Systems). Conditioned media was subjected to Aβ40 quantification using Aβ40 ELISA (Invitrogen). Compounds which lowered Aβ40 levels in the conditioned media were identified as hits if they reduced Aβ40 by 4 standard deviations of the negative control (DMSO) but maintained cell viability. Cell viability was defined by CellQuanti Blue fluorescent signal maintained within two standard deviations of fluorescent signal from the control treated (DMSO) cells. High potency hits were defined by reducing Aβ40 40% or more (signal 60% of DMSO control).
Hits were defined as lowering Aβ by 4 standard deviations below the negative control (DMSO) treated condition but maintaining cell viability within 2 standard deviations of control.

First: C[N+]1(C)CCN(c2ccccc2)CC1.[I-] [1,1,-dimethyl-4-phenylpiperazinium iodide]
Second: Cc1ncc([N+](=O)[O-])n1CC(C)O (stereo not shown) [1-(2-methyl-5-nitro-imidazol-1-yl)-propan-2-ol]
The “Percent Inhibition” value of the first is lower: 9% for the first, 12% for the second.

First: O=C1N(c2ccccc2)c2ccccc2C1(Cc1ccncc1)Cc1ccncc1 [2h-indol-2-one,1,3-dihydro-1-phenyl-3,3-bis(4-pyridinylmethyl)]
Second: O=C(NCCN1CCOCC1)c1ccc(Cl)cc1 [4-chloro-n-(2-morpholin-4-yl-ethyl)-benzamide]
The “Percent Inhibition” value of the first is higher: 22% for the first, 21% for the second.

First: O=[N+]([O-])c1cccc2cn[nH]c12 [7-nitroindazole]
Second: Cl.Nc1c2c(nc3c1CCC3)CCCC2 [amiridine, cyclopenta[b]quinolin-9-amine, 2,3,5,6,7,8-hexahydro-,monohydrochloride]
The “Percent Inhibition” value of the first is lower: 17% for the first, 40% for the second.

Going from `CN1C2CC(OC(=O)C(CO)c3ccccc3)CC1C1OC12` (stereo not drawn) [benzeneacetic acid, alpha-(hydroxymethyl)-, 9-methyl-3-oxa-9-azatricyclo[3,3,1,2,4]non-7-yl ester] to `COc1cc(OC)c(C(=O)CCCN2CCCC2)c(OC)c1` [buflomedil], the “Percent Inhibition” value falls from 67% to 13%.

Going from `COc1cc(CNC(=O)CCCC/C=C/C(C)C)ccc1O` [capsaicin] to `C=CC1=C(C(=O)O)N2C(=O)[C@@H](NC(=O)/C(=N\OCC(=O)O)c3csc(N)n3)[C@H]2SC1` [cefixime], the “Percent Inhibition” value falls from 62% to 19%.

First: CC[C@H]1OC(=O)[C@H](C)[C@@H](O[C@H]2C[C@@](C)(OC)[C@@H](O)[C@H](C)O2)[C@H](C)[C@@H](O[C@@H]2O[C@H](C)C[C@H](N(C)C)[C@H]2O)[C@](C)(OC)C[C@@H](C)C(=O)[C@H](C)[C@@H](O)[C@]1(C)O [clarithromycin]
Second: CN1C(=O)CN=C(c2ccccc2)c2cc(Cl)ccc21 [diazepam]
The “Percent Inhibition” value of the first is higher: 22% for the first, 11% for the second.

First: O=C(O)C(Cl)Cl [dichloroacetic acid]
Second: C[C@@H]1C[C@H]2[C@@H]3C[C@H](F)C4=CC(=O)C(Cl)=C[C@]4(C)[C@@]3(F)[C@@H](O)C[C@]2(C)[C@@]1(O)C(=O)CO [halometasone]
The “Percent Inhibition” value of the first is lower: 11.5% for the first, 14% for the second.

Compared with `COc1ccc(-c2oc3c(CC=C(C)C)c(O[C@@H]4O[C@H](CO)[C@@H](O)[C@H](O)[C@H]4O)cc(O)c3c(=O)c2O[C@@H]2O[C@@H](C)[C@H](O)[C@@H](O)[C@H]2O)cc1` [icariin], `CO[C@@H]1[C@@H](O[C@@H]2O[C@H](C)[C@@H](O[C@H]3C[C@@](C)(O)[C@@H](OC(=O)CC(C)C)[C@H](C)O3)[C@H](N(C)C)[C@H]2O)[C@@H](CC=O)C[C@@H](C)[C@@H](O)/C=C/C=C/C[C@@H](C)OC(=O)C[C@H]1O` [kitasamycin] is lower in “Percent Inhibition” value: 53% for the first, 16% for the second.

First: CC(Oc1c(Cl)cccc1Cl)C1=NCCN1 (stereo not shown) [lofexidine]
Second: CC(C(=O)O)c1ccc(CC2CCCC2=O)cc1 (stereo not shown) [loxoprofen]
The “Percent Inhibition” value of the first is higher: 17% for the first, 9% for the second.

Going from `CC(=O)O[C@]1(C(C)=O)CC[C@H]2[C@@H]3C=C(C)C4=CC(=O)CC[C@]4(C)[C@H]3CC[C@@]21C` [megestrol acetate] to `Oc1ccc2c3c1O[C@H]1c4[nH]c5ccccc5c4C[C@@]4(O)[C@@H](C2)N(CC2CC2)CC[C@]314` [naltrindole], the “Percent Inhibition” value rises from 20% to 66%.

First: CN1C(=O)CN=C(c2ccccc2)c2cc([N+](=O)[O-])ccc21 [nimetanzepam]
Second: c1cncc([C@@H]2CCCN2)c1 [nornicotine]
The “Percent Inhibition” value of the first is lower: 13% for the first, 50% for the second.

Going from `Cc1ncc([N+](=O)[O-])n1CC(O)CCl` (stereo not shown) [orinidazole] to `Nc1nc(O)c2ncn(CCC(CO)CO)c2n1` [peniciclovir], the “Percent Inhibition” value rises from 9% to 11%.

Going from `NNCCc1ccccc1` [phenelzine sulfate] to `OC[C@H]1O[C@@H](Oc2cc(O)cc(/C=C/c3ccc(O)cc3)c2)[C@H](O)[C@@H](O)[C@@H]1O` [piceid], the “Percent Inhibition” value falls from 70% to 11%.

Going from `C[C@@H](N=C(NC#N)Nc1ccncc1)C(C)(C)C` [pinacicil] to `Cc1nc2ccccn2c(=O)c1CCN1CCC(C(=O)c2ccc(F)cc2)CC1` [pirenperone], the “Percent Inhibition” value falls from 17% to 11%.

Going from `CN1C(C(=O)Nc2ccccn2)=C(O)c2ccccc2S1(=O)=O` [piroxicam] to `COc1cc(-c2ccc(=O)[nH]n2)ccc1OC(F)F` [pyridazinone, 6-[4-difluoromethoxy)-3-methoxyphenyl]], the “Percent Inhibition” value rises from 9.5% to 50%.

First: CN(C)CCc1c[nH]c2ccc(Cn3cncn3)cc12 [rizatriptan benzoate]
Second: CS(=O)(=O)c1ccc(C2=C(c3ccccc3)C(=O)OC2)cc1 [rofecoxib]
The “Percent Inhibition” value of the first is lower: 10% for the first, 12% for the second.

Going from `CC(=O)OCC(=O)NCCCOc1cccc(CN2CCCCC2)c1` [roxatidine acetate] to `CNS(=O)(=O)Cc1ccc2[nH]cc(CCN(C)C)c2c1` [sumatriptan succinate], the “Percent Inhibition” value falls from 12% to 8%.

Going from `O[C@@H]1CCCC[C@H]1N1CCC(c2ccccc2)CC1` [vesamicol hcl] to gabexate mesylate, the “Percent Inhibition” value falls from 52% to 20%.

First: medroxyprogesterone
Second: salbutamol sulfate
The “Percent Inhibition” value of the first is lower: 20% for the first, 70% for the second.

Same assay, conditions: Aβ40 lowering; high priority hits confirmed from independent compound sources; read-out: IC50

`Cl.Nc1c2c(nc3c1CCC3)CCCC2` [amiridine, cyclopenta[b]quinolin-9-amine, 2,3,5,6,7,8-hexahydro-,monohydrochloride] was tested, and the IC50 was 2300 nM.

Same assay, conditions: Mus musculus, Neuron

With `COc1ccc(-c2oc3c(CC=C(C)C)c(O[C@@H]4O[C@H](CO)[C@@H](O)[C@H](O)[C@H]4O)cc(O)c3c(=O)c2O[C@@H]2O[C@@H](C)[C@H](O)[C@@H](O)[C@H]2O)cc1` [icariin] the IC50 was 5100 nM.

Same assay, conditions: Mus musculus, Neuron; Aβ40 lowering; high priority hits confirmed from independent compound sources; read-out: IC50

Molecule `NNCCc1ccccc1` [phenelzine sulfate] has an IC50 of 2500 nM.

What follows are molecules tested on tau (assay: Assay for tau: Western blot of tau isoforms in wild type mES cell-derived pyramidal neurons). Conditions: 1 uM; treated at 14 DIV for 48 hr; Western blot (CP13, PHF).
Format: cell-based, mouse
Parameters: key: *: asterisk denotes hit compounds
Description: (§1) In certain embodiments, the inhibitor of the present invention is identified by an assay directed to detecting inhibitors of tau phosporylation. For example, but not by way of limitation, such assays can include assays such as those prepared as follows. First, wild type, mouse embryoinc stem cells are differentiated into pyramidal neurons using the protocol described in Example 1. ES cell-derived neurons are treated at 14 DIV for 48 hr with either vehicle (D, DMSO) or various histone demethylase inhibitors (inhibitor compounds 1-10). Tau isoforms are detected by Western blot analysis of the cell lysates using the indicated antibodies, See FIG. 11. CP13 recognizes tau phosphorylation at ser202/205. PHF recognizes tau phosphorylation at ser396/404. TUJ1 (Neuron-specific class III beta-tubulin) is used as a loading control.
as §1, with “Wild” for “In certain embodiments, the inhibitor of the present invention is identified by an assay directed to detecting inhibitors of tau phosporylation. For example, but not by way of limitation, such assays can include assays such as those prepared as follows. First, wild”, “were” for “are”
List of inhibitor compounds tested for their ability to inhibit levels of total tau, disease-associated phosphorylated or presence of modified forms of tau include (asterisk denotes hit compounds): *1. pargyline (LSD1 inhibitor)—1000 uM; *2. deprenyl (LSD1 inhibitor)—1000 uM; *3. propargyl (LSD1 inhibitor)—100 uM; 4. phenelzine (LSD1 inhibitor)—100 uM; 5. tranylcyprmine (LSD1 inhibitor)—200 uM; *6. S2101 (LSD1 Inhibitor II, EMD Biosciences catalog #489477)—LSD1 inhibitor—1 uM; 7. N-oxyalylglycine (NOG) (JMJD2s inhibitor)—1000 uM; *8. pyradine (JMJ2A and E inhibitor)—1000 uM; *9. disulfiram (JMJ2A inhibitor)—20 uM; *10. ebselen (JMJ2A inhibitor)—20 uM.

In the case of `NC1CC1c1cc(F)cc(F)c1OCc1ccccc1` (stereo not shown) [S2101], the “ability to inhibit levels of total tau, disease-associated phosphorylated or presence of modified forms of tau” value (“ability to inhibit levels of total tau” for short) is reported as “*”.

Same assay, conditions: 20 uM; treated at 14 DIV for 48 hr; Western blot (CP13, PHF)

In the case of `CCN(CC)C(=S)SSC(=S)N(CC)CC` [disulfiram], the “ability to inhibit levels of total tau” value is reported as “*”.
In the case of `O=c1c2ccccc2[se]n1-c1ccccc1` [ebselen], the “ability to inhibit levels of total tau” value is reported as “*”.

Same assay, conditions: 1000 uM; treated at 14 DIV for 48 hr; Western blot (CP13, PHF)

For `C#CCN(C)[C@H](C)Cc1ccccc1` [deprenyl], the “ability to inhibit levels of total tau” value was “*”.
For `C#CCN(C)Cc1ccccc1` [pargyline], the “ability to inhibit levels of total tau” value was “*”.
